Laboratory results published in patent US6472158B1, “Ustilipides, method for the production and the use thereof” (Aventis Pharma Deutschland GmbH, priority 1998, dated 2002).

Tests used:
[1] = target: T1, Dopamine D3 receptor (Homo sapiens, UniProt P35462); assay: Dopamine D3 receptor binding assay ([N-methyl-3H]spiroperidol, CHO membranes); conditions: human D3 receptor in CHO membranes, room temperature, 60 minutes
T1 construct: expressed in transfected cells
Method: (§1) The ustilipides effectively antagonize dopamine D2 and D3 receptors. One measure of their activity is the IC50 which indicates the concentration of inhibitor at which the rate of the normal enzymatic reaction (or receptor antagonism) is reduced by 50%.
(§2) The D3 and D2 long genes were isolated from a human cDNA library and stably transfected into CHO cells (CHO=Chinese hamster ovary). Membrane fractions are obtained from single clones with high-level expression. The binding assay is carried out in 96-well plates at room temperature for 60 minutes. The reaction mixture contains 50 μl of [N-methyl-^3H]spiroperidol, 50 μl of test substance or S(−)-eticlopride made for nonspecific binding and 100 μl of membrane. The assay is stopped by rapid filtration through a GF/B filter into a Skatron 96 cell harvester. The filters are cut up and placed in containers (T trays, Wallac), and the radioactivity is determined in a scintillation counter.
(§3) The specific binding is defined as the difference between the total binding and the binding in the presence of 10 μM S(−)-eticlopride. The total binding corresponds approximately to 10% of the counts of the ligands employed in total.
(§4) The inhibition of the binding by a test substance is calculated by correlation with the control reaction. Analysis of the data took place using the LIGAND software package of McPherson, Munson & Rodbard, Elsevier-BIOSOFT.

[2] = tested on: human erythrocytes; assay: In vitro hemolysis; type: cell-based
Method: On use of the schizonellins, a fatal 100% hemolysis occurs at concentrations as low as 10 and 30 μg/ml respectively. Determination of the hemolytic effect of ustilipides A, B and C gave the following results, the hemolysis being measured by the percentage of ruptured cells.
The hemolysis experiments were carried out with human erythrocytes.
Venous blood freshly taken from humans, rhesus monkeys or beagle dogs is used to measure the hemolytic activity. The blood is collected in heparinized tubes and distributed in aliquots of 200 μl to 12 polyethylene tubes. One aliquot is mixed with 200 μl of distilled water and serves as 100% standard, and another is mixed with 200 μl of physiological saline (0.9% NaCl) (0% standard). 200 μl portions of substance dilutions in physiological saline to […] are distributed to the other tubes. All the tubes are cautiously agitated and then incubated at 37° C. for 3 hours. The 100% standard is then made up with 5 ml of distilled water, and the other tubes are each made up with 5 ml of physiological saline, and are centrifuged at 700 g for 5 minutes.
The hemolysis is determined by measuring the absorption of the supernatant in a spectrophotometer at a wavelength of 540 nm. The absorption of the standard with complete hemolysis is set at 100%. The absorption of the test product dilutions and of the 0% standard are measured and stated as a percentage of the maximum inducible hemolysis.

[3] = Physicochemical properties (solubility, stability); conditions: for solubility: alcohols and other organic solvents
Source text: The physicochemical and spectroscopic properties of the ustilipides can be summarized as follows: […]

[4] = target: T2, Dopamine D2 receptor (D2 long) (Homo sapiens, UniProt P14416); assay: Dopamine D2 receptor binding assay ([N-methyl-3H]spiroperidol, CHO membranes); conditions: human D2 long receptor in CHO membranes, room temperature, 60 minutes
T2 construct: expressed in transfected cells
T2 sequence (P14416 whole entry): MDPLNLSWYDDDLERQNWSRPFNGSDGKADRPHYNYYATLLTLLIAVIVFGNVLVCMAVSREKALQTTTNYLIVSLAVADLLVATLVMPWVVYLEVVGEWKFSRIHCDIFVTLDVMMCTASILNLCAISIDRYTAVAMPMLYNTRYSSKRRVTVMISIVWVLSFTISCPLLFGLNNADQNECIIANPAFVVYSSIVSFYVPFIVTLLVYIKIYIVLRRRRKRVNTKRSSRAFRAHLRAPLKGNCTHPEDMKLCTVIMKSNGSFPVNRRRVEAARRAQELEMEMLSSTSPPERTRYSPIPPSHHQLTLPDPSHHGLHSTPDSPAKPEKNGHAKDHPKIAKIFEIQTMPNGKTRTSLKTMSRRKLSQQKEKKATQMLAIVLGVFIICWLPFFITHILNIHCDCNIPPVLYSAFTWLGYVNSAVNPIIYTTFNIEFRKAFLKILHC
Method: as §1, §2, §3, §4

[5] = neutral and weakly acidic medium

T1 sequence (P35462 whole entry): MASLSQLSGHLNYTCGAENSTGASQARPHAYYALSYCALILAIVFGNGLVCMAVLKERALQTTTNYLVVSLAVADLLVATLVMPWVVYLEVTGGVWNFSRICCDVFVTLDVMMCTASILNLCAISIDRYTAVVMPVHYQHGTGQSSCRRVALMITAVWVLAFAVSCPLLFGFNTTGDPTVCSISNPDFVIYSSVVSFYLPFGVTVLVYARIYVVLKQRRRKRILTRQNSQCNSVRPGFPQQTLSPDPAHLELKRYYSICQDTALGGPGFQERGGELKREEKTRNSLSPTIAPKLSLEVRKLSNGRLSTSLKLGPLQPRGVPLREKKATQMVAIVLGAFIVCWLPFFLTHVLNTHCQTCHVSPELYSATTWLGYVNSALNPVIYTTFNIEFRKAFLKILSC

CCCCCCCCCCCCCCCC(=O)O[C@@H]1[C@H](OC(=O)CCC)[C@H](OC[C@@H](O)[C@@H](O)CO)O[C@H](COC(C)=O)[C@H]1OC(C)=O [Ustilipide B]
IC50 [1]: 10.3 µM
hemolysis (percentage of ruptured cells) ([2]; 8 μg/ml): 0.0%
hemolysis (percentage of ruptured cells) ([2]; 16 μg/ml): 0.0%
hemolysis (percentage of ruptured cells) ([2]; 32 μg/ml): 0.0%
hemolysis (percentage of ruptured cells) ([2]; 62.5 μg/ml): 0.0%
hemolysis (percentage of ruptured cells) ([2]; 125 μg/ml): 0.4%
solubility [3]: Colorless oil which is soluble in alcohols and other
stability ([3]; alkaline solution): medium but unstable in alkaline solution.
stability [3, 5]: organic solvents. Stable in neutral and weakly acidic
IC50 [4]: 23.6 µM

CCCCCCCCCCCCCCCC(=O)O[C@@H]1[C@H](OC(=O)C(C)C)[C@H](OC[C@@H](O)[C@@H](O)CO)O[C@H](CO)[C@H]1OC(C)=O [Ustilipide C]
IC50 [1]: 18.9 µM
hemolysis (percentage of ruptured cells) ([2]; 8 μg/ml): 0.0%
hemolysis (percentage of ruptured cells) ([2]; 16 μg/ml): 0.4%
hemolysis (percentage of ruptured cells) ([2]; 32 μg/ml): 0.4%
hemolysis (percentage of ruptured cells) ([2]; 62.5 μg/ml): 0.5%
hemolysis (percentage of ruptured cells) ([2]; 125 μg/ml): 0.8%
solubility [3]: Colorless oil which is soluble in alcohols and other
stability ([3]; alkaline solution): medium but unstable in alkaline solution.
stability [3, 5]: organic solvents. Stable in neutral and weakly acidic
IC50 [4]: 14.2 µM

CCCCCCCCCCCCCCCC(=O)O[C@@H]1[C@H](OC(=O)CCCCC)[C@H](OC[C@@H](O)[C@@H](O)CO)O[C@H](COC(C)=O)[C@H]1OC(C)=O [Ustilipide A]
IC50 [1]: 7.09 µM
hemolysis (percentage of ruptured cells) ([2]; 8 μg/ml): 0.0%
hemolysis (percentage of ruptured cells) ([2]; 16 μg/ml): 0.0%
hemolysis (percentage of ruptured cells) ([2]; 32 μg/ml): 0.0%
hemolysis (percentage of ruptured cells) ([2]; 62.5 μg/ml): 0.0%
hemolysis (percentage of ruptured cells) ([2]; 125 μg/ml): 0.1%
solubility [3]: Colorless oil which is soluble in alcohols and other
stability ([3]; alkaline solution): medium but unstable in alkaline solution.
stability [3, 5]: organic solvents. Stable in neutral and weakly acidic
IC50 [4]: 42.6 µM
